Test results: patent US8906933B2, “Dihydropyrimidin-2(1H)-one compounds as neurokinin-3 receptor antagonists” (N30 Pharmaceuticals, Inc., priority 2010, dated 2014)
Where two headings read alike, the source gives them in different places.

Key:
GSNOR = GSNOR (Homo sapiens (Human), UniProt P11766); assay: GSNOR IC50 (method in incorporated applications); assay type: biochemical
human NK3 receptor [1] = biological target: T1, human NK3 receptor (Homo sapiens (Human), UniProt P29371); assay: Human NK3 receptor binding assay at 10 μM; conditions: 10 μM test compound, [3H]SR142801, CHO cell membranes
T1 sequence (P29371 whole entry): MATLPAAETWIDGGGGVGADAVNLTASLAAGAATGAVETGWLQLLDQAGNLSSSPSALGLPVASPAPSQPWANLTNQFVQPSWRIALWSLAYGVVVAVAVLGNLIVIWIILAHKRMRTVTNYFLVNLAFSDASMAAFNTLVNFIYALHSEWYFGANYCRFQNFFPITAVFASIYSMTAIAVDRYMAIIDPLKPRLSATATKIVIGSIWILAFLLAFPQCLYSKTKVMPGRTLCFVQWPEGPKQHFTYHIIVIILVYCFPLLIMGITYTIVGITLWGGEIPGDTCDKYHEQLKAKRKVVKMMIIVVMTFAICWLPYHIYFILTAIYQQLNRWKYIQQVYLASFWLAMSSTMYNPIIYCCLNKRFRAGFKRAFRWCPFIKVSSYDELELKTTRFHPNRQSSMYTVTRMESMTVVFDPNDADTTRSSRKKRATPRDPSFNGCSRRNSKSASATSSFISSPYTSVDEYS
Procedure: Antagonist activity was evaluated at a concentration of 10 μM for a representative subset of test compounds, and the results were expressed as the percent inhibition at that concentration.
Each test compound was evaluated at a single concentration of 10 μM. […] The results are expressed as a percent of control specific binding ((measured specific binding/control specific binding)×100) obtained in the presence of the test compounds.

human NK3 receptor [2] = biological target: T1, human NK3 receptor; assay: Human NK3 receptor binding assay at 1 uM; conditions: 1 μM test compound; [3H]SR142801, CHO cell membranes; read-out: percent inhibition at 1 μM
Procedure: Antagonist activity was evaluated at a concentration of 1 μM for a representative subset of test compounds, and the results were expressed as the percent inhibition at that concentration.
Each test compound was evaluated at a single concentration of 1 μM. […] The results are expressed as a percent of control specific binding ((measured specific binding/control specific binding)×100) obtained in the presence of the test compounds.

human NK3 receptor [3] = biological target: T1, human NK3 receptor; assay: biochemical
[4] = read-out: percent inhibition at 10 μM
[5] = read-out: NK3, % inhibition @ 10 μM

Chain of GSNOR (P11766 whole entry): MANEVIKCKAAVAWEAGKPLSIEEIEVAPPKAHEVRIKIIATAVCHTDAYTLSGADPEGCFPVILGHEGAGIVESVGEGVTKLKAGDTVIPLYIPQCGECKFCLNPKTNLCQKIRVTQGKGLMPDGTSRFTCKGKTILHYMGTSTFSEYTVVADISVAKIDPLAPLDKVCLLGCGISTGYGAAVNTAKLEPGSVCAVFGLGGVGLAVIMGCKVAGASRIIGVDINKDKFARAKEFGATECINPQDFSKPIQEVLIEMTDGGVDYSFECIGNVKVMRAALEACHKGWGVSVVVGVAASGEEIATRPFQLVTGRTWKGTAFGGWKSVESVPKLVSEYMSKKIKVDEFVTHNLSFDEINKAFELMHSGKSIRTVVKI

| SMILES | inhibition at 10 µM (human NK3 receptor [1]; [4]) | inhibition at 1 µM (human NK3 receptor [2]) | IC50 (human NK3 receptor [3]) | further results |
| --- | --- | --- | --- | --- |
| Cn1cc(C2=C(c3ccsc3)C(c3ccc(C(=O)O)c(O)c3)NC(=O)N2)cn1 (racemic) [2-hydroxy-4-(6-(1-methyl-1H-pyrazol-4-yl)-2-oxo-5-(thiophen-3-yl)-1,2,3,4-tetrahydropyrimidin-4-yl)benzoic acid] |  |  |  | IC50 (GSNOR): 0.039 µM |
| Cn1cc(C2=C(c3ccsc3)[C@H](c3ccc(C(=O)O)c(O)c3)NC(=O)N2)cn1 [2-hydroxy-4-(6-(1-methyl-1H-pyrazol-4-yl)-2-oxo-5-(thiophen-3-yl)-1,2,3,4-tetrahydropyrimidin-4-yl)benzoic acid] |  |  |  | IC50 (GSNOR): 0.023 µM |
| CCOc1cc(C2NC(=O)NC(c3ccccc3)=C2c2ccccc2)cc(C#N)c1O (stereo not drawn) [3-ethoxy-2-hydroxy-5-(2-oxo-5,6-diphenyl-1,2,3,4-tetrahydropyrimidin-4-yl)benzonitrile] | > 50% | > 50% | ≤ 1 µM |  |
| CCOc1cc(C2C(c3ccccc3)=C(c3ccccc3)N(C)C(=O)N2C)cc([N+](=O)[O-])c1O (stereo not drawn) [4-(3-ethoxy-4-hydroxy-5-nitrophenyl)-1,3-dimethyl-5,6-diphenyl-3,4-dihydropyrimidin-2(1H)-one] |  | > 50% | ≤ 0.1 µM |  |
| CCOc1cc(C2NC(=O)N(C)C(c3ccccc3)=C2c2ccccc2)cc([N+](=O)[O-])c1O (stereo not drawn) [4-(3-ethoxy-4-hydroxy-5-nitrophenyl)-1-methyl-5,6-diphenyl-3,4-dihydropyrimidin-2(1H)-one] |  | > 50% | ≤ 1 µM |  |
| CCOc1cc(C2C(c3ccccc3)=C(c3ccccc3)NC(=O)N2C)cc([N+](=O)[O-])c1O (stereo not drawn) [4-(3-ethoxy-4-hydroxy-5-nitrophenyl)-3-methyl-5,6-diphenyl-3,4-dihydropyrimidin-2(1H)-one] |  | > 50% | ≤ 1 µM |  |
| CCOc1cc(C2NC(=O)NC(c3ccccc3)=C2c2ccccc2F)cc([N+](=O)[O-])c1O (stereo not drawn) [4-(3-ethoxy-4-hydroxy-5-nitrophenyl)-5-(2-fluorophenyl)-6-phenyl-3,4-dihydropyrimidin-2(1H)-one] | > 50% | > 50% |  |  |
| CCOc1cc([C@@H]2NC(=O)NC(c3cccnc3)=C2c2ccccc2)cc([N+](=O)[O-])c1O [4-(3-ethoxy-4-hydroxy-5-nitrophenyl)-5-phenyl-6-(pyridin-3-yl)-3,4-dihydropyrimidin-2(1H)-one] |  |  | 55 µM |  |
| CCOc1cc(C2NC(=O)NC(c3ccn(C)n3)=C2c2ccsc2)cc([N+](=O)[O-])c1O (stereo not drawn) [4-(3-ethoxy-4-hydroxy-5-nitrophenyl)-6-(1-methyl-1H-pyrazol-3-yl)-5-(thiophen-3-yl)-3,4-dihydropyrimidin-2(1H)-one] | > 50% |  |  | inhibition at 10 µM (human NK3 receptor [1]; [5]): 61% |
| CCOc1cc(C2NC(=O)NC(c3cnn(C)c3)=C2c2ccsc2)cc([N+](=O)[O-])c1O (stereo not drawn) [4-(3-ethoxy-4-hydroxy-5-nitrophenyl)-6-(1-methyl-1H-pyrazol-4-yl)-5-(thiophen-3-yl)-3,4-dihydropyrimidin-2(1H)-one] | > 50% |  |  |  |
| CCOc1cc(C2NC(=O)NC(c3cccc(OC)c3)=C2c2ccccc2)cc([N+](=O)[O-])c1O (stereo not drawn) [4-(3-ethoxy-4-hydroxy-5-nitrophenyl)-6-(3-methoxyphenyl)-5-phenyl-3,4-dihydropyrimidin-2(1H)-one] | > 50% | > 50% |  |  |
| CCOc1cc(C2NC(=O)NC(c3ccccc3)=C2c2cccc(C)c2)cc([N+](=O)[O-])c1O (stereo not drawn) [4-(3-ethoxy-4-hydroxy-5-nitrophenyl)-6-phenyl-5-m-tolyl-3,4-dihydropyrimidin-2(1H)-one] |  | > 50% | ≤ 1 µM |  |
| COCCOc1cc(C2NC(=O)NC(c3ccccc3)=C2c2ccccc2)cc([N+](=O)[O-])c1O (stereo not drawn) [4-(4-hydroxy-3-(2-methoxyethoxy)-5-nitrophenyl)-5,6-diphenyl-3,4-dihydropyrimidin-2(1H)-one] | > 50% | > 50% |  |  |
| COc1cc(C2NC(=O)NC(c3ccccc3)=C2c2ccccc2)cc([N+](=O)[O-])c1O (stereo not drawn) [4-(4-hydroxy-3-methoxy-5-nitrophenyl)-5,6-diphenyl-3,4-dihydropyrimidin-2(1H)-one] | > 50% | > 50% |  |  |
| CCOc1cc(C2NC(=O)NC(c3ccccc3)=C2c2ccccc2)cc2oc(=O)[nH]c12 (stereo not drawn) [4-ethoxy-6-(2-oxo-5,6-diphenyl-1,2,3,4-tetrahydropyrimidin-4-yl)benzo[d]oxazol-2(3H)-one] |  | > 50% | ≤ 1 µM |  |
| CCOc1cc(C2NC(=O)NC(c3ccc(Cl)c(F)c3)=C2c2ccccc2)cc([N+](=O)[O-])c1O (stereo not drawn) [6-(4-chloro-3-fluorophenyl)-4-(3-ethoxy-4-hydroxy-5-nitrophenyl)-5-phenyl-3,4-dihydropyrimidin-2(1H)-one] | > 50% | > 50% |  |  |
| CCOc1cc([C@H]2NC(=O)NC(c3cccnc3)=C2c2ccccc2)cc([N+](=O)[O-])c1O [(R)-4-(3-ethoxy-4-hydroxy-5-nitrophenyl)-5-phenyl-6-(pyridin-3-yl)-3,4-dihydropyrimidin-2(1H)-one] |  |  | 0.7 µM |  |

Further lines, with some results ahead:

| inhibition at 10 µM (human NK3 receptor [1]; [4]) | inhibition at 1 µM (human NK3 receptor [2]) | IC50 (human NK3 receptor [3]) | SMILES | further results |
| --- | --- | --- | --- | --- |
|  |  | 19 µM | CCOc1cc([C@@H]2NC(=O)NC(c3ccccc3)=C2c2ccccc2)cc([N+](=O)[O-])c1O [4-(3-ethoxy-4-hydroxy-5-nitrophenyl)-5,6-diphenyl-3,4-dihydropyrimidin-2(1H)-one] |  |
| > 50% |  |  | CCOc1cc(C2NC(=O)NC(c3ccoc3)=C2c2ccccc2)cc([N+](=O)[O-])c1O (stereo not drawn) [4-(3-ethoxy-4-hydroxy-5-nitrophenyl)-6-(furan-3-yl)-5-phenyl-3,4-dihydropyrimidin-2(1H)-one] |  |
| > 50% |  |  | CCOc1cc(C2NC(=O)NC(c3cccnc3)=C2c2ccsc2)cc([N+](=O)[O-])c1O (stereo not drawn) [4-(3-ethoxy-4-hydroxy-5-nitrophenyl)-6-(pyridin-3-yl)-5-(thiophen-3-yl)-3,4-dihydropyrimidin-2(1H)-one] | inhibition at 10 µM (human NK3 receptor [1]; [5]): 63% |
| > 50% |  |  | CCOc1cc(C2NC(=O)NC(c3ccccc3)=C2c2cccs2)cc([N+](=O)[O-])c1O (stereo not drawn) [4-(3-ethoxy-4-hydroxy-5-nitrophenyl)-6-phenyl-5-(thiophen-2-yl)-3,4-dihydropyrimidin-2(1H)-one] |  |
| > 50% |  |  | CCOc1cc(C2NC(=O)NC(c3ccccc3)=C2c2ccsc2)cc([N+](=O)[O-])c1O (stereo not drawn) [4-(3-ethoxy-4-hydroxy-5-nitrophenyl)-6-phenyl-5-(thiophen-3-yl)-3,4-dihydropyrimidin-2(1H)-one] | inhibition at 10 µM (human NK3 receptor [1]; [5]): 97% |
|  |  | 22 µM | CCOc1cc([C@@H]2NC(=O)NC(c3ccccc3)=C2c2ccsc2)cc([N+](=O)[O-])c1O [4-(3-ethoxy-4-hydroxy-5-nitrophenyl)-6-phenyl-5-(thiophen-3-yl)-3,4-dihydropyrimidin-2(1H)-one] |  |
|  | > 50% | ≤ 1 µM | CCOc1cc(C2NC(=O)NC(c3ccccc3)=C2c2cccc(Cl)c2)cc([N+](=O)[O-])c1O (stereo not drawn) [5-(3-chlorophenyl)-4-(3-ethoxy-4-hydroxy-5-nitrophenyl)-6-phenyl-3,4-dihydropyrimidin-2(1H)-one] |  |
|  |  | 0.11 µM | CCOc1cc([C@H]2NC(=O)NC(c3ccccc3)=C2c2ccccc2)cc([N+](=O)[O-])c1O [(R)-4-(3-ethoxy-4-hydroxy-5-nitrophenyl)-5,6-diphenyl-3,4-dihydropyrimidin-2(1H)-one] |  |
|  |  | 1.4 µM | CCOc1cc([C@H]2NC(=O)NC(c3ccccc3)=C2c2ccsc2)cc([N+](=O)[O-])c1O [(R)-4-(3-ethoxy-4-hydroxy-5-nitrophenyl)-6-phenyl-5-(thiophen-3-yl)-3,4-dihydropyrimidin-2(1H)-one] |  |
